Here are results for 54 compounds from patent publication US20150011508A1, “COMPOUNDS AND COMPOSITIONS AS C-KIT KINASE INHIBITORS” (priority 2011, published 2015).

In the first assay the target is T1, c-kit (Homo sapiens, UniProt P10721).
T1 construct: human Mo7e cells which endogenously express c-kit; endogenous in cells; host or cells: human Mo7e cells (SCF-dependent promegakaryocytic leukemia line)
T1 sequence (P10721 26-976): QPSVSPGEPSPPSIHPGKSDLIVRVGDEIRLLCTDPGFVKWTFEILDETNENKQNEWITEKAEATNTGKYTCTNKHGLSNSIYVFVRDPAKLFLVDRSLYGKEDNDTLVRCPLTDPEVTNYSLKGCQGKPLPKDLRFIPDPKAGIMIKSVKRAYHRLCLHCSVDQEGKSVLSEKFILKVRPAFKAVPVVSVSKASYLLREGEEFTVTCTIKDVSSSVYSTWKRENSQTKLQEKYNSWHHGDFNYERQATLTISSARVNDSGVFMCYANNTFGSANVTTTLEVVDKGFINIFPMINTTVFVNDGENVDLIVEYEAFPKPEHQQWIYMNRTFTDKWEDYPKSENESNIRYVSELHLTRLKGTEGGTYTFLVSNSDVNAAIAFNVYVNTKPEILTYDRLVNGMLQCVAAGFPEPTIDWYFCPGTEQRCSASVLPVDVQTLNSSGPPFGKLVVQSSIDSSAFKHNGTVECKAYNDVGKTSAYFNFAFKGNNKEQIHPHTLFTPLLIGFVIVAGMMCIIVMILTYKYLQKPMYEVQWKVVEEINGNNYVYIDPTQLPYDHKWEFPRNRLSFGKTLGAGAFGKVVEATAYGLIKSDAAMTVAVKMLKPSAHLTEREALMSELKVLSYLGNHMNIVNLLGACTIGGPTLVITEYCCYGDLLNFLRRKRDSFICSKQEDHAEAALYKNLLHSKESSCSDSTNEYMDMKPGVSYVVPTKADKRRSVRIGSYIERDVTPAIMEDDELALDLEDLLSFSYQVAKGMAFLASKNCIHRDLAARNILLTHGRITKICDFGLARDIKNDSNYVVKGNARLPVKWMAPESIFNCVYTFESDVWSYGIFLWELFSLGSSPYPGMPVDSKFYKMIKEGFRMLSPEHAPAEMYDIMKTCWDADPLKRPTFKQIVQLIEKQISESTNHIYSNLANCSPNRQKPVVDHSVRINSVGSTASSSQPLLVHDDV
As to the kind of experiment: Mo7e cell proliferation assay (SCF dependent proliferation). The format is cell-based. The following applies: Table 1; human Mo7e cells stimulated with human recombinant SCF, 48 h, CellTiter Glo; 1% FBS (footnote). How it is done: Compounds of Formula (I) and Formula (II) provided herein were assayed to measure their capacity to inhibit c-kit and PDGFR kinases using the appropriate assay described below: c-Kit inhibition was evaluated using the Mo7e cell proliferation assay, and PDGFR inhibition was evaluated using the Rat A10 cell proliferation assay and the Human TGHA-VSMC cell proliferation assay.
The compounds of Table 1 and Table 2 were tested for inhibition of SCF dependent proliferation using human Mo7e cells which endogenously express c-kit in a 384 well format. […] After 48 hours of incubation at 37° C., cell viability was measured by adding 25 uL of CellTiter Glo (Promega) to the cells and the luminescence was measured by a CLIPR CCD camera (Molecular Devices).
The IC50 value is given as that concentration of the test compound in question that provoke a response halfway between the baseline and maximum responses.
For orientation: In ATP-based viability assays light output follows the ATP content of the culture.
As usually defined, the IC50 is the point on the concentration scale where inhibition reaches its midpoint. Take `Cc1nc(-c2ccc(C)c(NC(=O)c3cnc4ccc(-c5cnn(CCN6CCOCC6)c5)cn34)c2)no1` [F51]: the IC50 was 95 nM.
Turning to `[2H]c1c([2H])c([2H])n2c(C(=O)Nc3cc(-c4noc(CC=C(C)C)n4)ccc3C)cnc2c1[2H]` [F52], the IC50 amounted to 16 nM.
The same measure, in the same setting: in the case of `[2H]c1c([2H])c([2H])n2c(C(=O)Nc3cc(-c4noc(COCCOC)n4)ccc3C)cnc2c1[2H]` [F53, N-(5-(5-((2-methoxyethoxy)methyl)-1,2,4-oxadiazol-3-yl)-2-methylphenyl)5,6,7,8,deutero-imidazo[1,2-a]pyridine-3-carboxamide] it was 61 nM.
With `Cc1ccc(-c2noc(CCC(=O)OC(C)C)n2)cc1NC(=O)c1cnc2ccccn12` [F55a, isopropyl 3-(3-(3-(imidazo[1,2-a]pyridine-3-carboxamido)-4-methylphenyl)-1,2,4-oxadiazol-5-yl)propanoate], the IC50 was determined as 92 nM.
The same measure, in the same setting: in the case of `COc1ccc2ncc(C(=O)Nc3cc(-c4noc(CCC(C)(C)O)n4)ccc3C)n2c1` [F56] it was 70 nM.
Still for that read-out and setting: in the case of `Cc1ccc2ncc(C(=O)Nc3cc(-c4noc(CCC(C)(C)O)n4)ccc3C)n2c1` [F57] it was 98 nM; in that of `COCCOCc1nc(-c2ccc(C)c(NC(=O)c3cnc4ccc(C)cn34)c2)no1` [F58], 90 nM.
On the same count and under the same terms, in the case of `CCCC(C)c1nc(-c2ccc(C)c(NC(=O)c3cnc4ccc(C)cn34)c2)no1` (stereo not drawn) [F59] it was 22 nM.
Turning to `Cc1ccc(-c2noc(CCC(C)(C)O)n2)cc1NC(=O)c1cnc2cc(N3CCOCC3)ccn12` [F60], the IC50 was 58 nM.
For the compound `Cc1ccc(-c2noc(CCC(C)(C)O)n2)cc1NC(=O)c1cnc2cc(N3CCOC3=O)ccn12` [F61], the IC50 amounted to 272 nM.
Same read-out and setting: in the case of `Cc1ccc(-c2noc(CCC(C)(C)O)n2)cc1NC(=O)c1cnc2cc(N3CCCC3=O)ccn12` [F62] it was 79 nM; in that of `Cc1ccc(-c2noc(CCC(C)(C)O)n2)cc1NC(=O)c1cnc2cc(-c3cnn(C)c3)ccn12` [F63], 7 nM.
On to `Cc1ccc(-c2noc(CCC(C)(C)O)n2)cc1NC(=O)c1cnc2cc(C3CC3)ccn12` [F64], for which the 50% inhibitory concentration (IC50) was determined as 48 nM.
On the same count and under the same terms, in the case of `Cc1ccc(-c2noc(N(C)CC(C)(C)O)n2)cc1NC(=O)c1cnc2cc(F)ccn12` [F65] it was 100 nM; in that of `Cc1ccc(-c2noc(CCC(C)(O)C(F)(F)F)n2)cc1NC(=O)c1cnc2ccccn12` (stereo not drawn) [F66, N-(2-methyl-5-(5-(4,4,4-trifluoro-3-hydroxy-3-methylbutyl)-1,2,4-oxadiazol-3-yl)phenyl)imidazo[1,2-a]pyridine-3-carboxamide], 27 nM.
The same measure, in the same setting: in the case of `Cc1ccn2c(C(=O)Nc3cc(-c4noc(CCC(C)(O)C(F)(F)F)n4)ccc3C)cnc2c1` (stereo not drawn) [F67, 7-methyl-N-(2-methyl-5-(5-(4,4,4-trifluoro-3-hydroxy-3-methylbutyl)-1,2,4-oxadiazol-3-yl)phenyl)imidazo[1,2-a]pyridine-3-carboxamide] it was 16 nM.
With `Cc1ccn2c(C(=O)Nc3cc(-c4noc(NCCF)n4)ccc3C)cnc2c1` [F68], the IC50 was 54 nM.
As for `Cc1ccn2c(C(=O)Nc3cc(-c4noc(NCC(C)C)n4)ccc3C)cnc2c1` [F69], the half-maximal inhibitory concentration (IC50) stood at 16 nM.
As for `Cc1ccc(-c2noc(CCC(C)(O)C(F)(F)F)n2)cc1NC(=O)c1cnc2cc(F)ccn12` (stereo not drawn) [F70], the half-maximal inhibitory concentration (IC50) was 44 nM.
In the case of `Cc1ccc(-c2noc(CCC(C)(O)C(F)(F)F)n2)cc1NC(=O)c1cnc2ccc(F)cn12` (stereo not drawn) [F71], the 50% inhibitory concentration (IC50) was 54 nM.
Same read-out and setting: in the case of `Cc1ccc2ncc(C(=O)Nc3cc(-c4noc(CCC(C)(O)C(F)(F)F)n4)ccc3C)n2c1` (stereo not drawn) [F72] it was 35 nM; in that of `[2H]c1c([2H])c([2H])n2c(C(=O)Nc3cc(-c4noc(CCC(C)(O)C(F)(F)F)n4)ccc3C)cnc2c1[2H]` (stereo not drawn) [F73], 25 nM.
Turning to `Cc1ccc(-c2noc(CCC(F)(F)F)n2)cc1NC(=O)c1cnc2ccccn12` [F74], the IC50 came out at 36 nM.
In the case of `Cc1ccn2c(C(=O)Nc3cc(-c4noc(COCC(F)(F)F)n4)ccc3C)cnc2c1` [F77], the IC50 worked out at 10 nM.
The same measure, in the same setting: in the case of `[2H]C([2H])([2H])c1ccn2c(C(=O)Nc3cc(-c4noc(COCC(F)(F)F)n4)ccc3C)cnc2c1` [F78, 7-methyl-d3-N-(2-methyl-5-(5-((2,2,2-trifluoroethoxy)methyl)-1,2,4-oxadiazol-3-yl)phenyl)imidazo[1,2-a]pyridine-3-carboxamide] it was 9 nM.
As for `Cc1ccc2ncc(C(=O)Nc3cc(-c4noc(COCC(F)(F)F)n4)ccc3C)n2c1` [F79], the 50% inhibitory concentration (IC50) came out at 13 nM.
On the same count and under the same terms, in the case of `Cc1ccc(-c2noc(CCCC(F)(F)F)n2)cc1NC(=O)c1cnc2ccccn12` [F80] it was 5 nM.
On the same count and under the same terms, in the case of `Cc1nc(-c2ccc(C)c(NC(=O)c3cnc4ccc(-c5ccccc5C)cn34)c2)no1` [F81, N-(2-methyl-5-(5-methyl-1,2,4-oxadiazol-3-yl)phenyl)-6-(o-tolyl)imidazo[1,2-a]pyridine-3-carboxamide] it was 96 nM; in that of `Cc1nc(-c2ccc(C)c(NC(=O)c3cnc4ccc(-c5cccnc5C)cn34)c2)no1` [F82], 53 nM; in that of `Cc1nc(-c2ccc(C)c(NC(=O)c3cnc4ccc(-c5ccncc5C)cn34)c2)no1` [F83], 48 nM.
As to `Cc1ccc2ncc(C(=O)Nc3cc(-c4noc(CC[C@](C)(O)C(F)(F)F)n4)ccc3C)n2c1` [F84], the IC50 was 30 nM.
The same measure, in the same setting: in the case of `Cc1ccc(-c2noc(CC[C@](C)(O)C(F)(F)F)n2)cc1NC(=O)c1cnc2ccc(F)cn12` [F85] it was 38 nM; in that of `Cc1ccc(-c2noc(CC[C@](C)(O)C(F)(F)F)n2)cc1NC(=O)c1cnc2cc(F)ccn12` [F86], 43 nM; in that of `Cc1ccc2ncc(C(=O)Nc3cc(-c4noc(CC[C@@](C)(O)C(F)(F)F)n4)ccc3C)n2c1` [F87], 29 nM.
`Cc1ccc(-c2noc(CC[C@@](C)(O)C(F)(F)F)n2)cc1NC(=O)c1cnc2ccc(F)cn12` [F88]: the IC50 was found to be 42 nM.
Same read-out and setting: in the case of `Cc1ccc(-c2noc(CC[C@@](C)(O)C(F)(F)F)n2)cc1NC(=O)c1cnc2cc(F)ccn12` [F89] it was 41 nM.
As for `COC(C)(CCc1nc(-c2ccc(C)c(NC(=O)c3cnc4cc(C)ccn34)c2)no1)C(F)(F)F` (stereo not drawn) [F90], the IC50 amounted to 48 nM.
In the case of `Cc1nc(C)c(-c2ccc3ncc(C(=O)Nc4cc(-c5noc(COCC(F)(F)F)n5)ccc4C)n3c2)s1` [F91, 6-(2,4-dimethylthiazol-5-yl)-N-(2-methyl-5-(5-((2,2,2-trifluoroethoxy)methyl)-1,2,4-oxadiazol-3-yl)phenyl)imidazo[1,2-a]pyridine-3-carboxamide], the half-maximal inhibitory concentration (IC50) is 6 nM.
Consider `Cc1nc(-c2ccc(C)c(NC(=O)c3cnc4ccc(-c5cccnc5F)cn34)c2)no1` [F92], for which the concentration for half-maximal inhibition (IC50) was 16 nM.
Same read-out and setting: in the case of `CNC(=O)c1ccc(-c2ccc3ncc(C(=O)Nc4cc(-c5noc(C)n5)ccc4C)n3c2)cn1` [F93] it was 68 nM; in that of `Cc1ccc(-c2noc(COCC(F)F)n2)cc1NC(=O)c1cnc2ccccn12` [F94, N-(5-(5-((2,2-difluoroethoxy)methyl)-1,2,4-oxadiazol-3-yl)-2-methylphenyl)imidazo[1,2-a]pyridine-3-carboxamide], 39 nM; in that of `Cc1ccc(-c2noc(COC(CF)CF)n2)cc1NC(=O)c1cnc2ccccn12` [F95], 28 nM.
As to `Cc1ccc(-c2noc(COC(C)C(F)(F)F)n2)cc1NC(=O)c1cnc2ccccn12` (stereo not drawn) [F96], the IC50 was found to be 11 nM.
For the compound `Cc1nc(-c2ccc(C)c(NC(=O)c3cnc4ccc(-c5scnc5C)cn34)c2)no1` [F97], the 50% inhibitory concentration (IC50) came out at 38 nM.
Still for that read-out and setting: in the case of `Cc1ccn2c(C(=O)Nc3cc(-c4noc(CCC(O)C(F)(F)F)n4)ccc3C)cnc2c1` (stereo not drawn) [F98] it was 18 nM.
Take `Cc1ccn2c(C(=O)Nc3cc(-c4noc(C[C@@H](O)C(F)(F)F)n4)ccc3C)cnc2c1` [F99]: the IC50 was found to be 45 nM.
On to `Cc1nc(-c2ccc(C)c(NC(=O)c3cnc4ccc(-c5c(C)nn(C)c5C)cn34)c2)no1` [F100], for which the 50% inhibitory concentration (IC50) was 19 nM.
On the same count and under the same terms, in the case of `Cc1nc(-c2ccc(C)c(NC(=O)c3cnc4ccc(-c5cccn5C)cn34)c2)no1` [F101] it was 80 nM; in that of `COc1ccncc1-c1ccc2ncc(C(=O)Nc3cc(-c4noc(C)n4)ccc3C)n2c1` [F102], 87 nM.
On the same count and under the same terms, in the case of `Cc1nc(-c2ccc(C)c(NC(=O)c3cnc4ccc(-c5ccnc(N)c5)cn34)c2)no1` [F103] it was 61 nM; in that of `Cc1nc(-c2ccc(C)c(NC(=O)c3cnc4ccc(-c5c(C)n[nH]c5C)cn34)c2)no1` [F104, 6-(3,5-dimethyl-1H-pyrazol-4-yl)-N-(2-methyl-5-(5-methyl-1,2,4-oxadiazol-3-yl)phenyl)imidazo[1,2-a]pyridine-3-carboxamide], 9 nM; in that of `Cc1nc(-c2ccc(C)c(NC(=O)c3cnc4ccc(-c5c(C)nn(S(C)(=O)=O)c5C)cn34)c2)no1` [F105, 6-(3,5-dimethyl-1-(methylsulfonyl)-1H-pyrazol-4-yl)-N-(2-methyl-5-(5-methyl-1,2,4-oxadiazol-3-yl)phenyl)imidazo[1,2-a]pyridine-3-carboxamide], 38 nM.
For `Cc1nc(-c2ccc(C)c(NC(=O)c3cnc4ccc(-c5c(C)nn(CCN6CCOCC6)c5C)cn34)c2)no1` [F106, 6-(3,5-dimethyl-1-(2-morpholinoethyl)-1H-pyrazol-4-yl)-N-(2-methyl-5-(5-methyl-1,2,4-oxadiazol-3-yl)phenyl)imidazo[1,2-a]pyridine-3-carboxamide], the 50% inhibitory concentration (IC50) was found to be 24 nM.

Still in this assay, the particulars now being: Table 2; human Mo7e cells stimulated with human recombinant SCF, 48 h, CellTiter Glo; 1% FBS (footnote).
As for `Cc1ccc(-c2nc(C(C)C)no2)cc1NC(=O)c1cnc2ccccn12` [F107], the half-inhibitory concentration (IC50) came out at 119 nM.
